Data: patent US20140221676A1, “COMPOSITIONS AND METHODS FOR TREATING AND/OR PREVENTING CARDIOVASCULAR DISEASE” (Amarin Pharmaceuticals Ireland Limited, priority 2013, published 2014)
“Also recorded” adds a separate entry of the source.

What was measured:
Assay type in all cases: in vivo, human
[1] = system: inflammation-associated end points (ICAM-1, Ox-LDL, Lp-PLA2, IL-6, hsCRP); experiment: MARINE study, inflammation-associated end points (ITT); conditions: for ICAM-1 change from baseline / ICAM-1 end-of-treatment value / IL-6 change from baseline / IL-6 end-of-treatment value / Lp-PLA2 change from baseline / Lp-PLA2 end-of-treatment value / Ox-LDL change from baseline / Ox-LDL end-of-treatment value / hsCRP change from baseline / hsCRP end-of-treatment value: median
Description: A summary of baseline values, end-of-treatment values, and median placebo-adjusted percent change from baseline to study end of inflammation-associated end points in each of the three ITT sub-populations is shown in Table 5. […]

[2] = Phase 1 open-label multidose pharmacokinetic study of IPE, EPA in plasma and RBCs by LC-MS/MS
Protocol: A study to characterize the pharmacokinetics of ethyl eicosapentaenoate in plasma and red blood cells after multiple-dose administration of IPE at 2 g per day and 4 g per day was performed in healthy adult male and female humans.
The study was a phase 1, open-label, randomized, multidose study in healthy, nonsmoking men and women aged >18 and ≦55 years with a body mass index (BMI)>18 and ≦30 kg/m^2. Exclusion criteria included use within 6 weeks prior to randomization through study end of any lipid-altering medications or supplements, including statins, niacin at levels of greater than 200 mg/day, fibrates, ezetimibe, bile acid sequestrants, omega-3 fatty acid medications, and supplements or foods enriched with omega-3 fatty acids (no more than 2 servings of fish per week were permitted).
Following a 14-day screening period, subjects entered a 28-day treatment period and were randomized to one of four IPE dose regimen treatment groups as shown in FIG. 1. Group 1 received IPE 2 g daily (1000-mg capsules; twice-daily [BID] regimen); Group 2 received IPE 4 g daily (1000-mg capsules; BID regimen); Group 3 received IPE 2 g daily (1000-mg capsules; once-daily [QD] regimen); and Group 4 received IPE 2 g daily (500-mg capsules; BID regimen). Treatment was administered orally, with or following a meal in the morning and evening for BID regimens, or in the morning only for the QD regimen. Subjects then entered an 18-day post-treatment pharmacokinetic sampling period.
The safety population was defined as all randomized subjects who received at least one dose of study drug. […]
Fasting EPA concentrations were measured with a validated liquid chromatography with tandem mass spectrometry (LC-MS/MS) method in plasma and RBCs prior to the morning dose (days 1, 14, 26, 28) and at serial time points (1, 3, 5, 6, 8, 10, 12, 24, 48, 72, 120, 192, 312, and 432 hours) after the morning dose on day 28. […] In RBCs, EPA was measured in the cell membrane, where EPA is mainly incorporated in phospholipids.
For total EPA in plasma and RBCs, lipids were isolated by acid/methanol/chloroform extraction followed by centrifugation and purified by isohexane and solid-phase extraction after confirmed complete lipid hydrolysis and transmethylation (acid/methanol, 50° C. overnight). […] Quantitation utilized linolenic acid as an internal standard and EPA as the standard for the calibration curve; for total plasma EPA, RBC EPA, and unesterified EPA, the lower limits of quantitation were 10 μg/mL, 5 μg/mL, and 50 ng/mL, respectively. EPA concentrations were measured at Charles River Laboratories Ltd (Elphinstone Research Center, Tranent, Edinburgh, Scotland, UK). […]

[3] = Safety and tolerability in the phase 1 IPE pharmacokinetic study
Description: The safety population was defined as all randomized subjects who received at least one dose of study drug. The per-protocol population was defined as all safety population subjects who completed the 28-day treatment period without any major protocol deviations, and who provided blood samples for EPA analyses.
Safety assessments consisted of adverse event (AE) monitoring, clinical laboratory measurements (chemistry, hematology, and urinalysis) 12-lead electrocardiographic measurements, vital signs (systolic and diastolic blood pressure, heart rate, respiratory rate, and oral body temperature) and physical examination findings.

[4] = system: inflammation-associated end points (ICAM-1, Ox-LDL, Lp-PLA2, IL-6, hsCRP); experiment: ANCHOR study, inflammation-associated end points (ITT); conditions: for ICAM-1 median placebo-adjusted % change from baseline / IL-6 median placebo-adjusted % change from baseline / Lp-PLA2 median placebo-adjusted % change from baseline / Ox-LDL median placebo-adjusted % change from baseline / hsCRP median placebo-adjusted % change from baseline: week 12; for ICAM-1 change from baseline / ICAM-1 end-of-treatment value / IL-6 change from baseline / IL-6 end-of-treatment value / Lp-PLA2 change from baseline / Lp-PLA2 end-of-treatment value / Ox-LDL change from baseline / Ox-LDL end-of-treatment value / hsCRP change from baseline / hsCRP end-of-treatment value: week 12, on statin, median
Protocol: A multi-center, placebo-controlled, randomized, double-blind, 12-week study was performed to evaluate the efficacy and safety of >96% E-EPA in patients with fasting triglyceride levels ≧200 mg/dl and <500 mg/dl despite statin therapy (the mean of two qualifying entry values needed to be ≧185 mg/dl and at least one of the values needs to be ≧200 mg/dl). The primary objective of the study was to determine the efficacy of >96% E-EPA 2 g daily and 4 g daily, compared to placebo, in lowering fasting TG levels in patients with high risk for cardiovascular disease and with fasting TG levels ≧200 mg/dL and <500 mg/dL, despite treatment to LDL-C goal on statin therapy.
The population for this study was men and women >18 years of age with a body mass index ≦45 kg/m^2 with fasting TG levels greater than or equal to 200 mg/dl and less than 500 mg/dl and on a stable does of statin therapy (with or without ezetimibe). The statin must have been atorvostatin, rosuvastatin or simvastatin. The dose of statin must have been stable for ≧4 weeks prior to the LDL-C/TG baseline qualifying measurement for randomization. The statin dose was optimal such that the patients are at their LDL-C goal at the LDL-C/TG baseline qualifying measurements. The same statin at the same dose was continued until the study ended.
Approximately 648 patients were randomized at approximately 80 centers in the U.S. The study was a 18- to 20-week, Phase 3, multi-center study consisting of 2 study periods: (1) A 6- to 8-week screening period that included a diet and lifestyle stabilization, a non-statin lipid-altering treatment washout, and an LDL-C and TG qualifying period and (2) A 12-week, double-blind, randomized, placebo-controlled treatment period.
After confirmation of qualifying fasting LDL-C and TG values, eligible patients entered a 12-week, randomized, double-blind treatment period. At Visit 4 (Week 0), patients were randomly assigned to 1 of the following treatment groups: • >96% E-EPA 2 g daily, • >96% E-EPA 4 g daily, or • Placebo.
>96% E-EPA was provided in 1 g liquid-filled, oblong, gelatin capsules. The matching placebo capsule was filled with light liquid paraffin and contains 0 g of >96% E-EPA. >96% E-EPA capsules were to be taken with food (i.e. with or at the end of a meal).
The primary efficacy variable for the double-blind treatment period was percent change in TG from baseline to Week 12 endpoint. The secondary efficacy variables for the double-blind treatment period included the following: • Percent changes in total cholesterol (TC), high-density lipoprotein cholesterol (HDL-C), LDL-C, calculated non-HDL-C, and very low-density lipoprotein cholesterol (VLDL-C) from baseline to Week 12 endpoint; • Percent change in very low-density lipoprotein TG from baseline to Week 12; • Percent changes in apolipoprotein A-I (apo A-I), apolipoprotein B (apo B), and apo A-I/apo B ratio from baseline to Week 12; • Percent changes in lipoprotein(a) from baseline to Week 12; • Percent changes in LDL particle number and size, measured by nuclear magnetic resonance, from baseline to Week 12; • Percent change in remnant-like particle cholesterol from baseline to Week 12; • Percent change in oxidized LDL from baseline to Week 12; • Changes in FPG and HbA1c from baseline to Week 12; • Change in insulin resistance, as assessed by the homeostasis model index insulin resistance, from baseline to Week 12; • Percent change in lipoprotein associated phospholipase A2 (Lp-PLA2) from baseline to Week 12; • Change in intracellular adhesion molecule-1 from baseline to Week 12; • Change in interleukin-2 from baseline to Week 12; • Change in plasminogen activator inhibitor-1 from baseline to Week 12. […]

## CC/C=C\C/C=C\C/C=C\C/C=C\C/C=C\CCCC(=O)OCC [IPE, ethyl eicosapentaenoate]
[1]; AMR101 2 g/day vs placebo
  ICAM-1 median placebo-adjusted % change from baseline: −2.3%
  IL-6 median placebo-adjusted % change from baseline: 4.7%
  Lp-PLA2 median placebo-adjusted % change from baseline: −5.1%
  Ox-LDL median placebo-adjusted % change from baseline: −3.0%
  hsCRP median placebo-adjusted % change from baseline: −10.1%
[1]; AMR101 2 g/day
  ICAM-1 change from baseline: −0.4%
  ICAM-1 end-of-treatment value: 257.5 ng/mL
  IL-6 change from baseline: 3.4%
  IL-6 end-of-treatment value: 3.0 pg/mL
  Lp-PLA2 change from baseline: −5.1%
  Lp-PLA2 end-of-treatment value: 220.5 ng/mL
  Ox-LDL change from baseline: 0.4%
  Ox-LDL end-of-treatment value: 75.2 U/L
  hsCRP change from baseline: 25.1%
  hsCRP end-of-treatment value: 2.4 mg/L
[1]; AMR101 4 g/day vs placebo
  ICAM-1 median placebo-adjusted % change from baseline: −2.5%
  IL-6 median placebo-adjusted % change from baseline: 11.0%
  Lp-PLA2 median placebo-adjusted % change from baseline: −13.6%
  Ox-LDL median placebo-adjusted % change from baseline: −6.4%
  hsCRP median placebo-adjusted % change from baseline: −36.0%
[1]; AMR101 4 g/day
  ICAM-1 change from baseline: −0.9%
  ICAM-1 end-of-treatment value: 253.0 ng/mL
  IL-6 change from baseline: 0.3%
  IL-6 end-of-treatment value: 2.4 pg/mL
  Lp-PLA2 change from baseline: −17.1%
  Lp-PLA2 end-of-treatment value: 201.0 ng/mL
  Ox-LDL change from baseline: −3.0%
  Ox-LDL end-of-treatment value: 74.8 U/L
  hsCRP change from baseline: −2.5%
  hsCRP end-of-treatment value: 2.2 mg/L
[2]; IPE 2 g/day vs 4 g/day (Group 1 vs Group 2), total plasma, total RBCs, unesterified EPA
  dose linearity of exposure (dose-normalized AUC and maximum concentration): Dose linearity was observed; also recorded: dose-proportional
[2]; in vivo
  effect of gender on exposure parameters: no consistent gender effect was observed
[2]; same daily dose 2 g, Group 1 vs Group 3
  comparison of exposure between QD and BID regimens: similarity between QD and BID regimens
[2]; same daily dose 2 g, Group 1 vs Group 4
  comparison of exposure between 500-mg and 1000-mg formulations: comparable exposures at comparable doses
[3]; Group 1, IPE 2 g daily, 1000-mg capsules BID
  subjects reporting at least one adverse event: 25.0%
[3]; Group 2, IPE 4 g daily, 1000-mg capsules BID
  subjects reporting at least one adverse event: 33.3%
[3]; Group 3, IPE 2 g daily, 1000-mg capsules QD
  subjects reporting at least one adverse event: 25.0%
[3]; Group 4, IPE 2 g daily, 500-mg capsules BID
  subjects reporting at least one adverse event: 33.3%
[3]; all groups
  changes in laboratory, electrocardiographic, or physical examination findings: no clinically meaningful changes
  intensity of adverse events: mild or moderate in intensity
[3]; all groups, safety population n = 48
  subjects reporting at least one adverse event: 29.2%
[4]; AMR101 2 g/day vs placebo
  ICAM-1 median placebo-adjusted % change from baseline: −2.2%
  IL-6 median placebo-adjusted % change from baseline: 7.0%
  Lp-PLA2 median placebo-adjusted % change from baseline: −8.0%
  Ox-LDL median placebo-adjusted % change from baseline: −5.8%
  hsCRP median placebo-adjusted % change from baseline: −6.8%
[4]; AMR101 2 g/day
  ICAM-1 change from baseline: 0.5%
  ICAM-1 end-of-treatment value: 268.5 ng/mL
  IL-6 change from baseline: 6.9%
  IL-6 end-of-treatment value: 2.7 pg/mL
  Lp-PLA2 change from baseline: −1.8%
  Lp-PLA2 end-of-treatment value: 183.5 ng/mL
  Ox-LDL change from baseline: 2.6%
  Ox-LDL end-of-treatment value: 55.8 U/L
  hsCRP change from baseline: 10.3%
  hsCRP end-of-treatment value: 2.5 mg/L
[4]; AMR101 4 g/day vs placebo
  ICAM-1 median placebo-adjusted % change from baseline: −2.4%
  IL-6 median placebo-adjusted % change from baseline: −1.0%
  Lp-PLA2 median placebo-adjusted % change from baseline: −19.0%
  Ox-LDL median placebo-adjusted % change from baseline: −13.3%
  hsCRP median placebo-adjusted % change from baseline: −22.0%
[4]; AMR101 4 g/day
  ICAM-1 change from baseline: 0.8%
  ICAM-1 end-of-treatment value: 270.0 ng/mL
  IL-6 change from baseline: 3.1%
  IL-6 end-of-treatment value: 2.6 pg/mL
  Lp-PLA2 change from baseline: −12.8%
  Lp-PLA2 end-of-treatment value: 160.0 ng/mL
  Ox-LDL change from baseline: −4.8%
  Ox-LDL end-of-treatment value: 51.4 U/L
  hsCRP change from baseline: −2.4%
  hsCRP end-of-treatment value: 2.0 mg/L
